From PMC8151276, “An Integrated Approach toward NanoBRET Tracers for Analysis of GPCR Ligand Engagement” (Molecules, 2021)

Target: T1, SMO (Homo sapiens, UniProt Q99835)
T1 construct: purchased Promega (in-house HiBiT-GPCR construct library, NanoBRET)
Assay: NanoBRET screen HiBiT-SMO in HEK293
Assay type: binding
Procedure: Each tracer candidate was screened across the entire library of HiBiT-GPCR constructs using NanoBRET as the detection modality. As depicted in Figure 4A, the specificity of interactions was evaluated through decrease in BRET due to competitive displacement of a bound tracer by excess parental compound. Each tracer was analyzed for binding to each HiBiT-GPCR fusion in the absence and in the presence of competing parental compound. Briefly, HEK293 cells were transfected with HiBiT-GPCR constructs diluted into promoterless DNA to reduce expression and maximize translocation to the cell surface. Each tracer candidate was then screened at concentrations of 1 μM and 0.1 μM across cells expressing these fusions. Cells were treated for 1.5 h with tracer either alone or in the presence of 20 μM competing parental compound (i.e., control). BRET was measured upon addition of purified LgBiT and subsequent complementation with HiBiT genetically fused to a GPCR. The specificity of interactions was assessed through a decrease in BRET signal due to competitive displacement of the bound tracer. To further gauge the robustness of these interactions, the fold response over the control (i.e., BRETtracer/BRETcontrol) was calculated. We chose a 1.5-fold response, which translates to ≥7-fold signal over noise as the minimal threshold required to score an interaction as positive. […]. Below we highlight the screening results obtained for our exemplary fluorescent tracers based on Clozapine, Amitriptyline and AZD1283.
HiBiT-GPCR DNA constructs were diluted in 10 mM Tris pH 8 to a final concentration of 0.01 μg/μL, arrayed in 96-well plates and stored at −20 °C. For transfection, HEK293 cells were suspended in Opti-MEM (without phenol red) supplemented with 2% fetal bovine serum (Seradigm) and 100 units/mL penicillin–streptomycin (Gibco) at a final concentration of 220,000 cells/mL and dispensed into white 96-well plates at 90 μL/well. Subsequent transfections and screens were carried using an Agilent Bravo Automated Liquid Handling Platform. First, the 96-well HiBiT DNA arrays were diluted 25-fold in Opti-MEM (without serum or phenol red) to a final concentration of 0.0004 μg/μL and 20 μL of the diluted DNAs were transferred into new 96-well plates. Next, promoterless carrier DNA (1 μg/μL) was diluted 25-fold (0.04 μg/μL) and then dispensed into the diluted arrays at 20 μL/well. Following brief mixing, Viafect transfection reagent (Promega) diluted 16-fold into Opti-MEM was dispensed into the plates at 40 μL/well. After mixing by pipetting, plates were incubated for 10 min on the pipetting station deck. The DNA-transfection reagent complexes were then added to plates containing cells. To facilitate the screen, 10 μL of DNA-transfection reagent complexes were added in duplicates to the top 4 and bottom 4 rows, resulting in two identical 48-well arrays per plate. Plates with transfected cells were incubated for 18–20 h at 37 °C/5% CO2. A screen of each tracer across the entire library using two different concentrations requires duplicate plates of transfected cells. Depending on the number of tracers being screened, transfections can be scaled up using the same ratios. The next day, for each tracer, four 20× screening solutions in tracer dilution buffer (Promega) were prepared: two duplicates at final concentration of 20 μM and two duplicates at a final concentration of 2 μM. A competing unmodified compound was added to one of each duplicate at a final concentration of 400 μM. The four resulting solutions were diluted 4-fold in Opti-MEM without serum or phenol red to generate 5× solutions (5 µM and 0.5 µM tracer +/− 100 μM competing compound). To screen the library, a BioTek MultiFlo FX liquid dispenser was used to dispense 22.5 µL of tracer solution to the top 4 rows and 22.5 µL tracer + competing compound solution to the 4 bottom rows. Plates were briefly mixed on an orbital shaker and incubated for 1.5 h at room temperature. […]

T1 sequence (Q99835 28-787): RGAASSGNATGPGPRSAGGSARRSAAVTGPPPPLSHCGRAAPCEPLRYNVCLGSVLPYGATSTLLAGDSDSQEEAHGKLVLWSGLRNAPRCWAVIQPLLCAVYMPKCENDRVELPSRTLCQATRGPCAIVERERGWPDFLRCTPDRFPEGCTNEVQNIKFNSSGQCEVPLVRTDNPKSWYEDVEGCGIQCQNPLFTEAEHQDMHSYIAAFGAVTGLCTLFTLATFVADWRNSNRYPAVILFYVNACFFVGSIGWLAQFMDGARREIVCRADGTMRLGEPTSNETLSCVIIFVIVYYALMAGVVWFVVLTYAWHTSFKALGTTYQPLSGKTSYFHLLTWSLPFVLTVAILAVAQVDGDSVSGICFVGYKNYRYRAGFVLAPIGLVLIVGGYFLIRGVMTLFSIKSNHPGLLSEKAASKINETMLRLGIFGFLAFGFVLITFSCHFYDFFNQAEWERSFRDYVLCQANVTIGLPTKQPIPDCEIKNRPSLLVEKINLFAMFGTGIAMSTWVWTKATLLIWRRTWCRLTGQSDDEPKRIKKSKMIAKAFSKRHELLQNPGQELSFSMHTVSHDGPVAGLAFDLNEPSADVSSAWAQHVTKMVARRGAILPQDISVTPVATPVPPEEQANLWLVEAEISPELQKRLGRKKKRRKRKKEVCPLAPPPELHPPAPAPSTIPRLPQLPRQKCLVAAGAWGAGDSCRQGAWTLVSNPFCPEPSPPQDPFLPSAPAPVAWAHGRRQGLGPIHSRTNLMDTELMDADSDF

Row | SMILES | NanoBRET Fold Response (SMO, tracer 0.1μM) | NanoBRET Fold Response (SMO, tracer 1μM) | other results
1 | O=C(CCc1ccc2n1[B-](F)(F)[N+]1=C(c3ccc[nH]3)C=CC1=C2)NCc1ccc(C(=O)NCCOCCC(=O)N[C@@H]2CC[C@@]3(O)[C@H]4Cc5ccc(O)c6c5[C@@]3(CCN4CC3CC3)[C@H]2O6)cc1 [Naltrexone-3-NB590] | 0.58 | 0.55 | 
2 | CCCn1c(=O)c2[nH]c(-c3ccc(OCC(=O)NCCNC(=O)CCOCCNC(=O)c4ccc(CNC(=O)CCc5ccc6n5[B-](F)(F)[N+]5=C(c7ccc[nH]7)C=CC5=C6)cc4)cc3)nc2n(CCC)c1=O [XAC-3-NB590] | 1.01 | 1.05 | 
3 | CC(C)N(CC[C@H](c1ccccc1)c1cc(CCNC(=O)c2ccc(CNC(=O)CCc3ccc4n3[B-](F)(F)[N+]3=C(c5ccc[nH]5)C=CC3=C4)cc2)ccc1O)C(C)C [Tolterodine-BZ-NB590] | 0.93 | 0.94 | 
4 | COc1ccc2[nH]c(-c3ccc(CNC(=O)CCOCCOCCOCCOCCNC(=O)CCc4ccc5n4[B-](F)(F)[N+]4=C(c6ccc[nH]6)C=CC4=C5)cc3)c(CCNC(C)=O)c2n1 [AzomelatoninICO9-2-NB590] |  |  | NanoBRET Fold Response (0.1μM tracer): 0.86; NanoBRET Fold Response (1μM tracer): 1.25
5 | CN1CCN(C2=Nc3cc(Cl)ccc3N(CC(=O)NCCOCCOCCOCCOCCNC(=O)CCc3ccc4n3[B-](F)(F)[N+]3=C(c5ccc[nH]5)C=CC3=C4)c3ccccc32)CC1 [Clozapine-c-2-NB590] |  |  | NanoBRET Fold Response (SMO, 0.1μM tracer): 0.97; NanoBRET Fold Response (SMO, 1μM tracer): 1.09
6 | COc1ccccc1N1CCN(CCCCN2C(=O)c3ccc(CNC(=O)CCOCCNC(=O)c4ccc(CNC(=O)CCc5ccc6n5[B-](F)(F)[N+]5=C(c7ccc[nH]7)C=CC5=C6)cc4)cc3C2=O)CC1 [NAN-190-3-NB590] | 0.88 | 0.97 | 
7 | Cc1nc2n(c(=O)c1CCN1CCC(c3noc4cc(F)ccc34)CC1)CCCC2OC(=O)NCCOCCOCCOCCOCCNC(=O)CCc1ccc2n1[B-](F)(F)[N+]1=C(c3ccc[nH]3)C=CC1=C2 (stereo not shown) [Risperidone-2-NB590] | 0.86 | 1.00 | 
8 | O=C(CCOCCOCCOCCOCCNC(=O)CCc1ccc2n1[B-](F)(F)[N+]1=C(c3ccc[nH]3)C=CC1=C2)NCCCN1CCN(C2=Nc3ccccc3Oc3ccc(Cl)cc32)CC1 [Loxapine-a-2-NB590] | 0.98 | 1.15 | 
9 | COc1ccccc1N1CCN(CCCCN2C(=O)c3ccc(CNC(=O)CCOCCOCCOCCOCCNC(=O)CCc4ccc5n4[B-](F)(F)[N+]4=C(c6ccc[nH]6)C=CC4=C5)cc3C2=O)CC1 [NAN-190-2-NB590] | 1.11 | 1.11 | 
10 | CC(C)N(CC[C@H](c1ccccc1)c1cc(CCNC(=O)CCOCCOCCOCCOCCNC(=O)CCc2ccc3n2[B-](F)(F)[N+]2=C(c4ccc[nH]4)C=CC2=C3)ccc1O)C(C)C [Tolterodine-2-NB590] | 0.73 | 0.83 | 
11 | N#CN=C(NCCCOc1cccc(CN2CCCCC2)c1)NCCNC(=O)CCOCCOCCOCCOCCNC(=O)CCc1ccc2n1[B-](F)(F)[N+]1=C(c3ccc[nH]3)C=CC1=C2 [Aminopotentidine-2-NB590] | 1.03 | 0.91 | 
12 | CCOC(=O)c1cc(C#N)c(N2CCC(C(=O)NS(=O)(=O)Cc3ccccc3/C=C/C(=O)NCCNC(=O)CCc3ccc4n3[B-](F)(F)[N+]3=C(c5ccc[nH]5)C=CC3=C4)CC2)nc1C [AZD1283-1-NB590] |  |  | NanoBRET Fold Response (SMO, 0.1μM): 1.05; NanoBRET Fold Response (SMO, 1μM): 1.13
13 | CN(C)CCC=C1c2ccccc2CCc2ccc(C(=O)NCCNC(=O)CCOCCOCCOCCOCCNC(=O)CCc3ccc4n3[B-](F)(F)[N+]3=C(c5ccc[nH]5)C=CC3=C4)cc21 [Amitriptyline-b-2-NB590] |  |  | NanoBRET Fold Response (tracer at 1μM): 0.97
14 | O=C(CCc1ccc2n1[B-](F)(F)[N+]1=C(c3ccc[nH]3)C=CC1=C2)NCCOCCOCCNC(=O)OCCOCCN1CCN(C2=Nc3ccccc3Sc3ccccc32)CC1 [Quetiapine-a-2-NB590] | 0.94 | 0.96 | 
15 | Cc1cc2c(s1)Nc1ccccc1N=C2N1CCN(CCCNC(=O)CCOCCOCCOCCOCCNC(=O)CCc2ccc3n2[B-](F)(F)[N+]2=C(c4ccc[nH]4)C=CC2=C3)CC1 [Olanzapine-a-2-NB590] | 1.12 | 0.82 | 
16 | CN1CCN(C2=Nc3cc(Cl)ccc3Nc3ccc(CNC(=O)CCOCCOCCOCCOCCNC(=O)CCc4ccc5n4[B-](F)(F)[N+]4=C(c6ccc[nH]6)C=CC4=C5)cc32)CC1 [Clozapine-b-2-NB590] |  |  | NanoBRET Fold Response (SMO, 0.1μM tracer): 1.13; NanoBRET Fold Response (SMO, 1μM tracer): 0.80
17 | COc1ccc2c(n1)c(CCNC(C)=O)cn2CCNC(=O)CCc1ccc2n1[B-](F)(F)[N+]1=C(c3ccc[nH]3)C=CC1=C2 [Azamelatonin-1-NB590] |  |  | NanoBRET Fold Response (0.1μM tracer): 0.82; NanoBRET Fold Response (1μM tracer): 1.37
18 | O=C(CCc1ccc2n1[B-](F)(F)[N+]1=C(c3ccc[nH]3)C=CC1=C2)NCc1ccc(C(=O)NCCOCCOCCNCC(O)COc2cccc3ccccc23)cc1 (stereo not shown) [Propranolol-3-NB590] |  |  | NanoBRET Fold Response (SMO, 0.1μM): 1.16; NanoBRET Fold Response (SMO, 1μM): 1.07
19 | O=C(CCOCCOCCOCCOCCNC(=O)CCc1ccc2n1[B-](F)(F)[N+]1=C(c3ccc[nH]3)C=CC1=C2)NCCCN1CCN(C2=Nc3cc(Cl)ccc3Nc3ccccc32)CC1 [Clozapine-a-2-NB590] |  |  | NanoBRET Fold Response (SMO, 0.1μM tracer): 1.00; NanoBRET Fold Response (SMO, 1μM tracer): 0.64
